One experiment deals with c-Cbl (Homo sapiens (Human), UniProt P22681). In words: C-Cbl LCK Ub TR-FRET assay (c-cbl Lck HTRF). It is filed as biochemical. The settings on record: for (fold-selectivity): C-cbl Lck HTRF IC50 relative to Cbl-b Lck HTRF IC50. An outline of the steps: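 After the ubiquitination reaction, detection mixture was added and plates incubated 20 min at room temperature before reading. IC50 values were calculated with wells lacking LCK as the low control and DMSO as the high control.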
Chain of c-Cbl (P22681 47-435): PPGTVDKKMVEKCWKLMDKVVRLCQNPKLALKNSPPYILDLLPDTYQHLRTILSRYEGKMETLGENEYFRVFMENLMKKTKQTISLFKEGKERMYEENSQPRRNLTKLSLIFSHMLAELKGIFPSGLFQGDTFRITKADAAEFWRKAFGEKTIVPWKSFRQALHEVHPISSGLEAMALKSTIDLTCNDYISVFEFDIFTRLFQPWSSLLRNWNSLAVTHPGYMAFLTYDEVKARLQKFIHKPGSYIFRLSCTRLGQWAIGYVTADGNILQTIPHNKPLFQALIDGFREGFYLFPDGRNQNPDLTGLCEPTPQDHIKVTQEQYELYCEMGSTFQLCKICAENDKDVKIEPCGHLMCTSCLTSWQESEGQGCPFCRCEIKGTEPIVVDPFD
Background: In TR-FRET formats the signal depends on donor and acceptor labels being close together.

Another experiment has as its target Cbl-b (Homo sapiens (Human), UniProt Q13191). Nature of the experiment: Cbl-b LCK Ub TR-FRET assay (Cbl-b Lck HTRF). It is filed as biochemical. An outline of the steps: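 Biotin-Cbl-b preincubated with compound (10-point 3-fold series) 60 min, then His-LCK with 1 mM ATP (2× mixture) added for 90 min at room temperature. Ubiquitination detected by TR-FRET using HA-ubiquitin/UBE2D2 adduct, anti-HA-D2 and streptavidin-Eu; IC50 normalised to no-LCK and DMSO controls.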

This is an account of results in patent US20250230147A1, “LACTAMS AS CBL-B INHIBITORS” (Genentech, Inc., priority 2021, published 2025).

Where a name gives a salt, the structure may show the parent alone.

Chain of Cbl-b (Q13191 40-426): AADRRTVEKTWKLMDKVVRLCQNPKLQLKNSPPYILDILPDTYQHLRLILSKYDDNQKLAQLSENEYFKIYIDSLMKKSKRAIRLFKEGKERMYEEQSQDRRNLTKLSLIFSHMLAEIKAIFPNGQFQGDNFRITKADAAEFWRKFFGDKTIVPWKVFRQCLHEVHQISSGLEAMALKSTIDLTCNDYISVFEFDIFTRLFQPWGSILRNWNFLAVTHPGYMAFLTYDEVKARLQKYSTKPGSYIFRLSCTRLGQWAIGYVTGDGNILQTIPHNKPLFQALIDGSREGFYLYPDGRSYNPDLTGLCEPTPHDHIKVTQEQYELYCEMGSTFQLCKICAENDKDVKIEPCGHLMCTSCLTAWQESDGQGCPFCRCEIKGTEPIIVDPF

One may read the IC50 as the concentration that gives 50% inhibition. A high value points to a need for much substance. For `Cn1cnnc1[C@H](F)C1(c2cccc(N3Cc4c(cc(CN5CC6(CCO6)C5)cc4C(F)(F)F)C3=O)c2)COC1` [Compound 139, (R)-6-(1-oxa-6-azaspiro[3.3]heptan-6-ylmethyl)-2-(3-(3-(fluoro(4-methyl-4H-1,2,4-triazol-3-yl)methyl)oxetan-3-yl)phenyl)-4-(trifluoromethyl)isoindolin-1-one], the half-maximal inhibitory concentration (IC50) against c-Cbl came out at 640 nM; against Cbl-b it was 230 nM. Also, the “(fold-selectivity)” value at c-Cbl is reported as 2.8x.
Consider `Cn1cnnc1CC1(c2cc(NC3CCCC3O)nc(N3Cc4c(cccc4C(F)(F)F)C3=O)c2)COC1` (centres unmarked) [Compound 489, 2-(6-((2-hydroxycyclopentyl)amino)-4-(3-((4-methyl-4H-1,2,4-triazol-3-yl)methyl)oxetan-3-yl)pyridin-2-yl)-4-(trifluoromethyl)isoindolin-1-one], for which the half-maximal inhibitory concentration (IC50) against c-Cbl came out at 19500 nM; at Cbl-b, 5000 nM. For the same compound, on c-Cbl, the “(fold-selectivity)” value is on record as “(3.8x)”.
Consider `CC1CC(C)(NCc2cc3c(c(C(F)(F)F)c2)CN(c2cccc(C4(Cc5nncn5C)CC(F)(F)C4)c2)C3=O)C1` (centres unmarked) [Compound 353, 2-(3-(3,3-difluoro-1-((4-methyl-4H-1,2,4-triazol-3-yl)methyl)cyclobutyl)phenyl)-6-(((1,3-dimethylcyclobutyl)amino)methyl)-4-(trifluoromethyl)isoindolin-1-one formate], for which the IC50 on c-Cbl was 6.6 nM; on Cbl-b, 12 nM.
For `CC(C)Oc1cccc2c1CN(c1cccc(C3([C@@H](F)c4nncn4C)COC3)c1)C2=O` [Compound 207, (R)-2-(3-(3-(fluoro(4-methyl-4H-1,2,4-triazol-3-yl)methyl)oxetan-3-yl)phenyl)-4-isopropoxyisoindolin-1-one], on c-Cbl, the IC50 was 13000 nM and the “(fold-selectivity)” value is 2.8x. At Cbl-b, this compound gave an IC50 of 4500 nM.
On the same counts, the results for `CCN1CCN(Cc2cc3c(c(C(F)(F)F)c2)CN(c2cccc(C4([C@@H](F)c5nncn5C)CC(F)(F)C4)c2)C3=O)[C@@H](C(C)C)C1` [Compound 460, 2-(3-(3,3-difluoro-1-((R)-fluoro(4-methyl-4H-1,2,4-triazol-3-yl)methyl)cyclobutyl)phenyl)-6-(((S)-4-ethyl-2-isopropylpiperazin-1-yl)methyl)-4-(trifluoromethyl)isoindolin-1-one] are 8.4 nM, “(0.58x)” and 14 nM.
On the same counts, the results for `Cn1cnnc1CC1(c2cc(OCc3ccccc3)nc(N3Cc4c(cc(CNC5(C)CCC5)cc4C(F)(F)F)C3=O)c2)CCC1` [Compound 360, 2-(6-(benzyloxy)-4-(1-((4-methyl-4H-1,2,4-triazol-3-yl)methyl)cyclobutyl)pyridin-2-yl)-6-(((1-methylcyclobutyl)amino)methyl)-4-(trifluoromethyl)isoindolin-1-one] are 17 nM, “(0.86x)” and 20 nM.
On the same counts, the results for `C[C@@H](N)c1cc2c(c(C(F)(F)F)c1)CN(c1cccc(C3([C@@H](F)c4nncn4C)COC3)c1)C2=O` [Compound 191, 6-((R)-1-aminoethyl)-2-(3-(3-((R)-fluoro(4-methyl-4H-1,2,4-triazol-3-yl)methyl)oxetan-3-yl)phenyl)-4-(trifluoromethyl)isoindolin-1-one] are 52 nM, 1.5x and 35 nM.
For the compound `CC[C@H]1CN(C)CCN1Cc1cc2c(c(C(F)(F)F)c1)CN(c1cccc(C3(Cc4nncn4C)CC(F)(F)C3)c1)C2=O` [Compound 401, (S)-2-(3-(3,3-difluoro-1-((4-methyl-4H-1,2,4-triazol-3-yl)methyl)cyclobutyl)phenyl)-6-((2-ethyl-4-methylpiperazin-1-yl)methyl)-4-(trifluoromethyl)isoindolin-1-one], on c-Cbl, half-maximal inhibition (IC50) required 27 nM and the “(fold-selectivity)” value was “(0.95x)”. At Cbl-b, this compound came in with an IC50 of 29 nM.
For `C[C@H](c1cc2c(c(C(F)(F)F)c1)CN(c1cccc(C3([C@H](F)c4nncn4C)COC3)c1)C2=O)N1CC(C)(F)C1` [Compound 111, 2-(3-(3-((S)-fluoro(4-methyl-4H-1,2,4-triazol-3-yl)methyl)oxetan-3-yl)phenyl)-6-((R)-1-(3-fluoro-3-methylazetidin-1-yl)ethyl)-4-(trifluoromethyl)isoindolin-1-one] the same measures were 340 nM, 1.8x and 190 nM.
For `CCn1cnnc1[C@@H](F)C1(c2cccc(N3Cc4c(cccc4C(F)(F)F)C3=O)c2)COC1` [Compound 271, (S)-2-(3-(3-((4-ethyl-4H-1,2,4-triazol-3-yl)fluoromethyl)oxetan-3-yl)phenyl)-4-(trifluoromethyl)isoindolin-1-one] the same measures were 1900 nM, “(1.2x)” and 1600 nM.
Turning to `CCCC1(O)CN(Cc2cc3c(c(C(F)(F)F)c2)CN(c2cccc(C4([C@H](F)c5nncn5C)COC4)c2)C3=O)C1` [Compound 172, (S)-2-(3-(3-(fluoro(4-methyl-4H-1,2,4-triazol-3-yl)methyl)oxetan-3-yl)phenyl)-6-((3-hydroxy-3-propylazetidin-1-yl)methyl)-4-(trifluoromethyl)isoindolin-1-one], the IC50 is 520 nM against c-Cbl and 180 nM on Cbl-b. Further, the “(fold-selectivity)” value on c-Cbl amounted to 2.9x.
For `Cn1cnnc1[C@H](F)C1(c2cccc(N3Cc4c(cc(CN5CC(C)(O)C5)cc4C(F)(F)F)C3=O)c2)COC1` [Compound 161, (R)-2-(3-(3-(fluoro(4-methyl-4H-1,2,4-triazol-3-yl)methyl)oxetan-3-yl)phenyl)-6-((3-hydroxy-3-methylazetidin-1-yl)methyl)-4-(trifluoromethyl)isoindolin-1-one] the same measures were 110 nM, 62 nM and 1.7x.
On the same counts, the results for `CC(C)Nc1cc([C@H](C)Cc2nncn2C)cc(N2Cc3c(cc(CN4CCC5(CC5)C4)cc3C(F)(F)F)C2=O)n1.O=CO` [Compound 55, (R)-6-((5-azaspiro[2.4]heptan-5-yl)methyl)-2-(6-(isopropylamino)-4-(1-(4-methyl-4H-1,2,4-triazol-3-yl)propan-2-yl)pyridin-2-yl)-4-(trifluoromethyl)isoindolin-1-one formate] are 26 nM, 16 nM and 1.6x.
For `C[C@@H](c1cc2c(c(C(F)(F)F)c1)CN(c1cccc(C3([C@@H](F)c4nncn4C)COC3)c1)C2=O)N1CC(C)(F)C1` [Compound 108, 2-(3-(3((R)-fluoro(4-methyl-4H-1,2,4-triazol-3-yl)methyl)oxetan-3-yl)phenyl)-6-((S)-1-(3-fluoro-3-methylazetidin-1-yl)ethyl)-4-(trifluoromethyl)isoindolin-1-one] the same measures were 160 nM, 83 nM and 2.0x.
Regarding `Cn1cnnc1[C@H](F)C1(c2cccc(N3Cc4c(cc(CN5CC(C)(O)C5)cc4C(F)(F)F)C3=O)c2)CC1` (single isomer, unassigned) [Compound 30], on c-Cbl, the midpoint of inhibition, the IC50, lay at 91 nM and the “(fold-selectivity)” value stood at 1.4x. The IC50 on Cbl-b amounted to 65 nM.
For `Cn1cnnc1[C@H](F)C1(c2cccc(N3Cc4c(cc(CN5CCC5)cc4C(F)(F)F)C3=O)c2)CC(F)(F)C1` [Compound 397, (R)-6-(azetidin-1-ylmethyl)-2-(3-(3,3-difluoro-1-(fluoro(4-methyl-4H-1,2,4-triazol-3-yl)methyl)cyclobutyl)phenyl)-4-(trifluoromethyl)isoindolin-1-one] the same measures were 150 nM, “(1.0x)” and 150 nM.
Take `CC(C)N(C)Cc1cc2c(c(C(F)(F)F)c1)CN(c1cccc(C3([C@H](F)c4nncn4C)CC(F)(F)C3)c1)C2=O` [Compound 420, (S)-2-(3-(3,3-difluoro-1-(fluoro(4-methyl-4H-1,2,4-triazol-3-yl)methyl)cyclobutyl)phenyl)-6-((isopropyl(methyl)amino)methyl)-4-(trifluoromethyl)isoindolin-1-one]: the values for the IC50 at c-Cbl and against Cbl-b were 220 nM and 240 nM, respectively. The “(fold-selectivity)” value at c-Cbl is listed as “(0.91x)”.
Consider `Cn1cnnc1CC1(c2cc(NCCc3ccncc3)nc(N3Cc4c(cc(CNC5(C)CCC5)cc4C(F)(F)F)C3=O)c2)CCC1` [Compound 321, 2-(4-(1-((4-methyl-4H-1,2,4-triazol-3-yl)methyl)cyclobutyl)-6-((2-(pyridin-4-yl)ethyl)amino)pyridin-2-yl)-6-(((1-methylcyclobutyl)amino)methyl)-4-(trifluoromethyl)isoindolin-1-one], for which, at c-Cbl, the IC50 was determined as 23 nM and the “(fold-selectivity)” value is given as “(1.3x)”. Also, the IC50 on Cbl-b worked out at 18 nM.
For `Cn1cnnc1CC1(c2cc(NCCN3CCCC3=O)nc(N3Cc4c(cc(CNC5(C)CCC5)cc4C(F)(F)F)C3=O)c2)CCC1` [Compound 338, 2-(4-(1-((4-methyl-4H-1,2,4-triazol-3-yl)methyl)cyclobutyl)-6-((2-(2-oxopyrrolidin-1-yl)ethyl)amino)pyridin-2-yl)-6-(((1-methylcyclobutyl)amino)methyl)-4-(trifluoromethyl)isoindolin-1-one] the same measures were 140 nM, “(1.1x)” and 130 nM.
Regarding `C[C@@H]1CN(Cc2cc3c(c(C(F)(F)F)c2)CN(c2cccc(C4([C@@H](F)c5nncn5C)COC4)c2)C3=O)CCCO1` [Compound 119, 2-(3-(3((R)-fluoro(4-methyl-4H-1,2,4-triazol-3-yl)methyl)oxetan-3-yl)phenyl)-6-(((R)-2-methyl-1,4-oxazepan-4-yl)methyl)-4-(trifluoromethyl)isoindolin-1-one], at c-Cbl, 52 nM corresponded to half-maximal inhibition (IC50) and the “(fold-selectivity)” value turned out to be 1.1x. This compound displayed an IC50 on Cbl-b of 48 nM.
